Results published in patent US12168668B2, “Compounds for the treatment of cancer and inflammatory disease” (SHY Therapeutics LLC, priority 2015, dated 2024).

Key:
IL-6 = test: Mouse IL6 quantification assay (LPS-stimulated RAW 264.7, ELISA); format: cell-based; settings: RAW264.7, RAW 264.7 macrophage cell line, LPS stimulation 16 h
Description: (§1) Protocol for Mouse TNF Alpha and IL6 Quantification Assay
(§2) Cell lines: Abelson murine leukemia virus transformed macrophage cell line RAW 264.7 was purchased from ATCC and grown in complete DMEM-High Glucose medium supplemented with penicillin (100 U/mL), streptomycin (100 μg/mL), and 10% heat-inactivated FBS at 37° C. in a humidified incubator with 5% CO2.
(§3) Method: Cells were plated at 40000 cells/well density in a 96-wells plate. After a 3-hour incubation, macrophages were starved with DMEM plus 0.5% FBS o/n. The next day the small molecules to be tested were added to the cells in the final concentration of 30 μM (with 0.3% DMSO) 3 hours prior to LPS stimulation (100 ng/ml). After LPS stimulation cells were incubated at 37° C. for 16 h. At the end of the incubation period, culture media were collected and production of LPS-induced TNFα and IL6 cytokine was measured using ELISA detection kits.
(§4) Sandwich ELISA: The ELISA Immunoassays Quantikine Mouse TNF-alpha (catalog number MTA00B) and IL6 (catalog number M6000B) were purchased from R&D Systems Inc., Minneapolis, MN These 4.5 hours solid phase ELISAs were used to measure mouse TNFα or IL6 levels in macrophages culture supernatants. Assays were executed according to the manufacturer specifications.

TNFα = test: Mouse TNF alpha quantification assay (LPS-stimulated RAW 264.7, ELISA); format: cell-based; settings: RAW264.7, RAW 264.7 macrophage cell line, LPS stimulation 16 h
Description: as §1, §2, §3, §4

## Oc1ccc(C2(c3ccccc3)CCCC2)cc1
IL-6
  inhibition at 30 µM: 76 to 100%
TNFα
  inhibition at 30 µM: 76 to 100%

## Oc1nc(-c2ccccn2)nc2c(-c3ccccc3)csc12
TNFα
  inhibition at 30 µM: 76 to 100%

## Oc1nc(-c2ccccn2)nc2c(-c3ccccc3Cl)csc12
TNFα
  inhibition at 30 µM: 51 to 75%
